In ChEMBL document CHEMBL1157740, “The discovery of novel tartrate-based TNF-alpha converting enzyme (TACE) inhibitors” (Bioorg Med Chem Lett, 2010) one finds Ki data, which are given here for 44 compounds.

Assay [1] addresses Disintegrin and metalloproteinase domain-containing protein 17 (Homo sapiens, UniProt P78536). Kind of assay: Inhibition of TACE.
In a further assay the target is T1, Matrilysin (Homo sapiens, UniProt P09237).
T1 sequence (P09237 whole entry): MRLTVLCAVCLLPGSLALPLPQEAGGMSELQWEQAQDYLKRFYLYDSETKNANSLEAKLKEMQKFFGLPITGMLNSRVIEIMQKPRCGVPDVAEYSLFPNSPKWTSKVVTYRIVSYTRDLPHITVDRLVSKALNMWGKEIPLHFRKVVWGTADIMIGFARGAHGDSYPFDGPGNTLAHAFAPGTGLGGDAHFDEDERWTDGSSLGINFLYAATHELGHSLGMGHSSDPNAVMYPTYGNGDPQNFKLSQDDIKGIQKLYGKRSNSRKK
As to the kind of experiment: Inhibition of MMP7.

For assay [2], the target named is Macrophage metalloelastase (Homo sapiens, UniProt P39900). Kind of assay: Inhibition of MMP12.
Chain of Macrophage metalloelastase (P39900 whole entry): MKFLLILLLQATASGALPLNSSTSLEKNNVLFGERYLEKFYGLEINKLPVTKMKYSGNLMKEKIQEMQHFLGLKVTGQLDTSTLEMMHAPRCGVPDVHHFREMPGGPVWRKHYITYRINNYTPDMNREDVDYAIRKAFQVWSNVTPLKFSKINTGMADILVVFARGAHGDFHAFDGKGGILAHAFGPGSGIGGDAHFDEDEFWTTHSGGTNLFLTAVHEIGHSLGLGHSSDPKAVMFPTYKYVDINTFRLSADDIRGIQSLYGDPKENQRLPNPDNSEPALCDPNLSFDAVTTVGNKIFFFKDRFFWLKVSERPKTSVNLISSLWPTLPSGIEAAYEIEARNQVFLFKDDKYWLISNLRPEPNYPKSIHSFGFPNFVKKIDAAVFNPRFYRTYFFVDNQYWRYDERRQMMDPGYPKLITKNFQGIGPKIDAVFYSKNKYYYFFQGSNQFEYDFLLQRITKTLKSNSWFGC
The target of the next assay is Stromelysin-1 (Homo sapiens, UniProt P08254). As to the kind of experiment: Inhibition of MMP3.
Chain of Stromelysin-1 (P08254 whole entry): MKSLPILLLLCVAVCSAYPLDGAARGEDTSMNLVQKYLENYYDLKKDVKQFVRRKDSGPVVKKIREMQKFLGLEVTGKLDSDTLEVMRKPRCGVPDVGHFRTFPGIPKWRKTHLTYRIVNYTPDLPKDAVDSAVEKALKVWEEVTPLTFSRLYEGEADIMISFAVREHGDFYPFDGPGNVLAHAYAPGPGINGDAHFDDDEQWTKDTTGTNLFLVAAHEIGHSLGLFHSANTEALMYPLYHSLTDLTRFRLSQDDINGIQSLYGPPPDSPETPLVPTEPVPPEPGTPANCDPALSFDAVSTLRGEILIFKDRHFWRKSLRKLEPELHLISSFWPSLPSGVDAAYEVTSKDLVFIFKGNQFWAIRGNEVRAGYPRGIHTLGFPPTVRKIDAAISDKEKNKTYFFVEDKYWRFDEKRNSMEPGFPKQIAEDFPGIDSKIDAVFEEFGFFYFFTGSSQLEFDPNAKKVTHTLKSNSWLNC
Another assay concerns the target T2, Interstitial collagenase (Homo sapiens, UniProt P03956).
T2 sequence (P03956 whole entry): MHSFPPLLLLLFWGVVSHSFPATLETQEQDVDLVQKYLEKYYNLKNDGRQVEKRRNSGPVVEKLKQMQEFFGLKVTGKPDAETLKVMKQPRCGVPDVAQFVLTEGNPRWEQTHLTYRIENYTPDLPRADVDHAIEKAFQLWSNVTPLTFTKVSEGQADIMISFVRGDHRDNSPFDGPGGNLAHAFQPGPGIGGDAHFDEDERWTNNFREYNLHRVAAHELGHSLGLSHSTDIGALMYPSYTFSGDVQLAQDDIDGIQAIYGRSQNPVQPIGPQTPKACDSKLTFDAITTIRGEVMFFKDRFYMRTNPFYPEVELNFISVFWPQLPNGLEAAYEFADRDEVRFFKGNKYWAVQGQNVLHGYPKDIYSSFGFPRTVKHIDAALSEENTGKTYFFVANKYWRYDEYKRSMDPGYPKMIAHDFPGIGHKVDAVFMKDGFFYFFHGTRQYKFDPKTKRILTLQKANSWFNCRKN
Kind of assay: Inhibition of MMP1.

Assay [3] deals with Matrix metalloproteinase-14 (Homo sapiens, UniProt P50281). As to the kind of experiment: Inhibition of MMP14.
Another assay deals with Collagenase 3 (Homo sapiens, UniProt P45452). Kind of assay: Inhibition of MMP13.
The target of assay [4] is T3, Disintegrin and metalloproteinase domain-containing protein 10 (Homo sapiens, UniProt O14672).
T3 sequence (O14672 whole entry): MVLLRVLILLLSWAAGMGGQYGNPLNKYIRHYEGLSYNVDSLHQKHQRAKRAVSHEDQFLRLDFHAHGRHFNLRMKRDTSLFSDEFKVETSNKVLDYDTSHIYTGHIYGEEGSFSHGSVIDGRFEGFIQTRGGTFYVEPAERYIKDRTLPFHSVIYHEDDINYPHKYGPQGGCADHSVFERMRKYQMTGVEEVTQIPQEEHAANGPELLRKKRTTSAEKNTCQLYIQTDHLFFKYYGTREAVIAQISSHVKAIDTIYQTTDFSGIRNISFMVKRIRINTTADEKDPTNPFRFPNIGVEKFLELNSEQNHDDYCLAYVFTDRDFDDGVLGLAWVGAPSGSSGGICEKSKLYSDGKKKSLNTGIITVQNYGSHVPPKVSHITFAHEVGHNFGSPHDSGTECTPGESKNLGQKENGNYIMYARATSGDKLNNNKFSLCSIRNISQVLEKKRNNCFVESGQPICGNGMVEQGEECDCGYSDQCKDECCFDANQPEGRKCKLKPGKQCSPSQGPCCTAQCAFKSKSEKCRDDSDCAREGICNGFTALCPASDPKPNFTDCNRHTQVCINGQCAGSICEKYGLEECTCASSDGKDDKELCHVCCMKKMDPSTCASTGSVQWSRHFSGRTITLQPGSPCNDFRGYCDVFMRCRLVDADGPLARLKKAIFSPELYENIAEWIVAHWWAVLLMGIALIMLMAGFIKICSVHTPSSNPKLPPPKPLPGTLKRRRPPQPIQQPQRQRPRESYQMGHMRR
As to the kind of experiment: Inhibition of ADAM10.

In assay [5] the target is 72 kDa type IV collagenase (Homo sapiens, UniProt P08253). As to the kind of experiment: Inhibition of MMP2.
Chain of 72 kDa type IV collagenase (P08253 whole entry): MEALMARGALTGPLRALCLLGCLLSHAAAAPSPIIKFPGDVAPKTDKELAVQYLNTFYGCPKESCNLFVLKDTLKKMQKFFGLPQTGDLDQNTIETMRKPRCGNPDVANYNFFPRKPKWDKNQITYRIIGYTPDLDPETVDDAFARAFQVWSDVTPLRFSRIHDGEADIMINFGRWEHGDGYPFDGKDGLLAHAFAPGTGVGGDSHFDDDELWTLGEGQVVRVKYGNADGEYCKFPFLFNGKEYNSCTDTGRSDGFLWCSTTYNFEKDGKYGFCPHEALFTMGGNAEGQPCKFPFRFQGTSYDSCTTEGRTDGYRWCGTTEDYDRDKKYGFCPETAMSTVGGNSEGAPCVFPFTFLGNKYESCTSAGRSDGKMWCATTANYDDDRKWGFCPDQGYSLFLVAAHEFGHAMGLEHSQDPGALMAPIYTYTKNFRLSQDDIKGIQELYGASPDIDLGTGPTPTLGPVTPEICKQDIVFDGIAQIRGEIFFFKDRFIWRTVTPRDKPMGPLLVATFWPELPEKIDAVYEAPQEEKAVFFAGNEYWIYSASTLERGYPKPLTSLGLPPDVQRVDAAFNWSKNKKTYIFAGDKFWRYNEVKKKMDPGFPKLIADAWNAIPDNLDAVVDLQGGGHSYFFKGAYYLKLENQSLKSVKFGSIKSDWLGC

Chain of Disintegrin and metalloproteinase domain-containing protein 17 (P78536 whole entry, the tested form may be a part): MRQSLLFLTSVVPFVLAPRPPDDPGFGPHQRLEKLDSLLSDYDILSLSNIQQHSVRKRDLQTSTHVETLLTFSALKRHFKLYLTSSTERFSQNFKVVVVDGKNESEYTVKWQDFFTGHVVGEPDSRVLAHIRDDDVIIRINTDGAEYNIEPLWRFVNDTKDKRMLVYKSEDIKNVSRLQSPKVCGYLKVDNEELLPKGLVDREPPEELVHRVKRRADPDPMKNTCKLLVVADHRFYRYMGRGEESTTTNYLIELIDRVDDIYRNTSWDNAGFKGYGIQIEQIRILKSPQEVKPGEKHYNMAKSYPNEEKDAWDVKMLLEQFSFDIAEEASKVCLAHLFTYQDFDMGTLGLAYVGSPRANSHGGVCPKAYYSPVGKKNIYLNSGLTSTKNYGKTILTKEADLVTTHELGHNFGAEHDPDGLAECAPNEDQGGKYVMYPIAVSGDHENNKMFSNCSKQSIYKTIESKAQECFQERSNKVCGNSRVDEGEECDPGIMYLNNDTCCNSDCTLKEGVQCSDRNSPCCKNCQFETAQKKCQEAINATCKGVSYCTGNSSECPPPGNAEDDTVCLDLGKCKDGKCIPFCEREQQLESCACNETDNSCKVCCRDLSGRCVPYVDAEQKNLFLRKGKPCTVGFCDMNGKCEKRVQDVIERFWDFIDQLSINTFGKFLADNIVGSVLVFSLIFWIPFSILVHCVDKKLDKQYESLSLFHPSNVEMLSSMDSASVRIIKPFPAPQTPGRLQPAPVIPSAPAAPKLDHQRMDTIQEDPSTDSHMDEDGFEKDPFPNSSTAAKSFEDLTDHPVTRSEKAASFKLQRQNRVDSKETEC

As to `O=C(NCCc1cccs1)[C@H](O)CC(=O)N1CCCC1c1cccc(Cl)c1` (some centres undefined), in assay [1], the Ki result was “Not Active”.
For `O=C(NCCc1cccs1)[C@H](O)[C@@H](O)c1nccs1`, in assay [1] (read-out: Ki), the Ki came to 5530 nM.
On to `O=C(NCCc1cccs1)[C@H](O)[C@@H](O)C(=O)N1CCCC1c1ccccc1Cl` (some centres undefined), for which, in [1] (read-out: Ki), the Ki is 323 nM.
As to `O=C(NCCc1cccs1)[C@H](O)[C@@H](O)C(=O)N1CCCC1c1cccc(Cl)c1` (some centres undefined), the Ki at Matrilysin is greater than 50000 nM; in assay [1] (read-out: Ki) it was 11 nM; in [2], greater than 50000 nM; at Stromelysin-1, 17000 nM; on Interstitial collagenase, greater than 50000 nM; in assay [3] it was 11000 nM. Moreover, the Ki on Collagenase 3 is 20000 nM; in [4] it was 29 nM; in assay [5] it was 33000 nM.
Take `Cc1cccc(C2CCCN2C(=O)[C@H](O)[C@@H](O)C(=O)N(C)CCc2cccs2)c1` (some centres undefined): in assay [1] (read-out: Ki), the Ki came to 13 nM.
As to `COc1cccc(C2CCCN2C(=O)[C@H](O)[C@@H](O)C(=O)N(C)CCc2cccs2)c1` (some centres undefined), the Ki in [1] (read-out: Ki) came out at 33 nM.
`O=C(NCc1cc(CC2C=CC=CC2Cl)cs1)[C@H](O)[C@@H](O)C(=O)N1CCC[C@@H]1c1cccc(Cl)c1` (some centres undefined): in assay [1] (read-out: Ki), the inhibition constant Ki is 13 nM.
In the case of `O=C([C@H](O)[C@@H](O)C(=S)NCc1cc(Cc2ccccc2Cl)cs1)N1CCCC1c1cccc(Cl)c1` (some centres undefined), the Ki in assay [1] (read-out: Ki) was 1110 nM.
On to `C[C@@H](c1ccccc1)N(C)C(=O)[C@H](O)[C@@H](O)C(=O)NCCc1cccs1`, for which the Ki in assay [1] (read-out: Ki) was determined as 487 nM.
In the case of `CN(C)c1cccc(C2CCCN2C(=O)[C@H](O)[C@@H](O)C(=O)NCCc2cccs2)c1` (some centres undefined), the Ki in assay [1] (read-out: Ki) turned out to be 41 nM.
`O=C(NCc1cc(Cc2ccccc2)cs1)[C@H](O)[C@@H](O)C(=O)N1CCCC1c1ccc(F)cc1` (some centres undefined): the Ki in assay [1] (read-out: Ki) came out at 93 nM.
Still for that read-out and setting: in the case of `O=C(NCCc1nc(Cc2ccccc2)cs1)[C@H](O)[C@@H](O)C(=O)N1CCCC1c1ccccc1` (some centres undefined) it was 48 nM.
As to `O=C(NCc1cc2ccccc2o1)[C@H](O)[C@@H](O)C(=O)N1CCCC1c1ccccc1` (some centres undefined), the Ki at Matrilysin is greater than 50000 nM; in [1] (read-out: Ki) it was 160 nM; on Stromelysin-1, 7700 nM; at Interstitial collagenase, 18700 nM; in [3], 140 nM; at Collagenase 3 it was 510 nM. Further, the Ki came out at 734 nM in assay [4] and 300 nM in assay [5].
Take `O=C(NCc1nc(Cc2ccccc2)cs1)[C@H](O)[C@@H](O)C(=O)N1CCCC1c1ccccc1` (some centres undefined): in assay [1] (read-out: Ki), the Ki was found to be 8 nM.
Still for that read-out and setting: the figure for `O=C(NCc1nc(Cc2ccccc2)co1)[C@H](O)[C@@H](O)C(=O)N1CCCC1c1ccccc1` (some centres undefined) is 22 nM.
Take `CN(Cc1ccccc1)C(=O)[C@H](O)[C@@H](O)C(=O)NCCc1cccs1`: the Ki in assay [1] (read-out: Ki) was found to be 764 nM.
On the same count and under the same terms, in the case of `CN(CCc1ccccc1)C(=O)[C@H](O)[C@@H](O)C(=O)NCCc1cccs1` it was 1280 nM.
The same measure, in the same setting: in the case of `C[C@H](c1ccccc1)N(C)C(=O)[C@H](O)[C@@H](O)C(=O)NCCc1cccs1` it was 238 nM.
For `O=C(NCCc1cccs1)[C@H](O)[C@@H](O)C(=O)N1CCCCC1c1ccccc1` (some centres undefined), the Ki in assay [1] (read-out: Ki) is 325 nM.
The same measure, in the same setting: in the case of `O=C(NCCc1cccs1)[C@H](O)[C@@H](O)C(=O)N1CCC(c2ccccc2)C1` (some centres undefined) it was 456 nM; in that of `O=C(NCCc1cccs1)[C@H](O)[C@@H](O)C(=O)N1CCN(c2ccccn2)CC1`, 2500 nM; in that of `CN(C)C(=O)[C@H](O)[C@@H](O)C(=O)NCCc1cccs1`, 1300 nM.
On the same count and under the same terms, in the case of `CN(C(=O)[C@H](O)[C@@H](O)C(=O)NCCc1cccs1)C1CCCCC1` it was 1400 nM.
Take `O=C(NCCc1cccs1)[C@H](O)[C@@H](O)C(=O)NCc1ccccc1`: the Ki result in [1] is reported as “Not Active”.
For the compound `O=C(NCCc1cccs1)[C@H](O)[C@@H](O)C(=O)N1CCC(Cc2ccccc2)CC1`, the Ki in [1] (read-out: Ki) is 1100 nM.
Same read-out and setting: the figure for `O=C(NCCc1cccs1)[C@H](O)[C@@H](O)C(=O)N1CCc2ccccc2C1` is 91 nM.
Still for that read-out and setting: the figure for `O=C(NCCc1cccs1)[C@H](O)[C@@H](O)C(=O)N1CCCC1c1nccs1` (some centres undefined) is 164 nM.
On to `COc1cccc(N2CCN(C(=O)[C@H](O)[C@@H](O)C(=O)NCCc3cccs3)CC2)c1`, for which, in [1] (read-out: Ki), the Ki was determined as 400 nM.
Take `O=C(NCCc1cccs1)[C@H](O)[C@@H](O)C(=O)N1CCCC1c1ccc(Cl)cc1` (some centres undefined): the Ki in assay [1] (read-out: Ki) was 755 nM.
On to `CN(Cc1cccnc1)C(=O)[C@H](O)[C@@H](O)C(=O)NCCc1cccs1`, for which the Ki in assay [1] (read-out: Ki) was determined as 943 nM.
With `O=C(NCc1ccc(Cc2ccccc2)cc1)[C@H](O)[C@@H](O)C(=O)N1CCCC1c1cccc(Cl)c1` (some centres undefined), the Ki in assay [1] (read-out: Ki) came to 70 nM.
As to `O=C(C[C@@H](O)C(=O)N1CCCC1c1cccc(Cl)c1)NCCc1cccs1` (some centres undefined), in assay [1], the Ki entry is listed as “Not Active”.
Regarding `O=C(NCc1cc(Cc2ccccc2Cl)cs1)[C@H](O)[C@@H](O)C(=S)N1CCCC1c1cccc(Cl)c1` (some centres undefined), the Ki in assay [1] (read-out: Ki) came to 1520 nM.
For `O=C(NCCc1cc(Cc2ccccc2)cs1)[C@H](O)[C@@H](O)C(=O)N1CCCC1c1ccccc1` (some centres undefined), the Ki on Matrilysin was 6000 nM; in [1] (read-out: Ki), 66 nM; in assay [2], 700 nM; on Interstitial collagenase, greater than 50000 nM; in [3], greater than 30000 nM; on Collagenase 3, 3600 nM. In addition, the Ki in assay [4] is greater than 25000 nM; in assay [5] it was greater than 50000 nM.
With `Cn1ccnc1[C@H](O)[C@@H](O)C(=O)NCCc1cccs1`, the Ki in [1] (read-out: Ki) was 10600 nM.
Same read-out and setting: in the case of `O=C(NCCc1cccs1)[C@H](O)[C@@H](O)C(=O)N1CCC[C@@H]1c1ccccc1` it was 20 nM; in that of `O=C(NCCc1cccs1)[C@H](O)[C@@H](O)C(=O)N1Cc2ccccc2C1`, 66 nM.
Consider `CN(CCc1cccs1)C(=O)[C@H](O)[C@@H](O)C(=O)N1CCN(c2ccccc2Cl)CC1`, for which the Ki entry in assay [1] is given as “Not Active”.
As for `CN(Cc1ccco1)C(=O)[C@H](O)[C@@H](O)C(=O)NCCc1cccs1`, in [1] (read-out: Ki), the Ki was 1020 nM.
Same read-out and setting: in the case of `O=C(NCCc1cccs1)[C@H](O)[C@@H](O)C(=O)N1CCCC1c1ccccn1` (some centres undefined) it was 188 nM.
Take `O=C(NCCc1cccs1)[C@H](O)[C@@H](O)C(=O)N1CCN(c2ccccc2Cl)CC1`: the Ki on Matrilysin is greater than 60000 nM; in [1] (read-out: Ki), 400 nM; in assay [2] it was 9000 nM; on Stromelysin-1, greater than 50000 nM; on Interstitial collagenase, greater than 90000 nM; in [3], greater than 40000 nM. Further, the Ki on Collagenase 3 was 7000 nM; in assay [4], 400 nM; in assay [5], greater than 30000 nM.
Consider `O=C(NCc1ccccc1)[C@H](O)[C@@H](O)C(=O)N1CCCC1c1cccc(Cl)c1` (some centres undefined), for which the Ki in assay [1] (read-out: Ki) turned out to be 1440 nM.
Same read-out and setting: the figure for `O=C(NCCc1nc(Cc2ccccc2)co1)[C@H](O)[C@@H](O)C(=O)N1CCCC1c1ccccc1` (some centres undefined) is 461 nM.
Turning to `O=C(NCCc1cccs1)[C@H](O)[C@@H](O)C(=O)N1CCCC1c1ccccc1` (some centres undefined), the Ki in assay [1] (read-out: Ki) turned out to be 96 nM.

A word on the Ki: it is the dissociation constant of the complex between target and ligand, obtained from inhibition or displacement.
